Measurements taken from patent publication US20170168041A1, “Polymers And Oligomers With Aggregation-Induced Emission Characteristics For Imaging And Image-Guided Therapy” (National University of Singapore, priority 2014, published 2017).

Tests used:
[1] = 1O2 quantum yield measurement with ABDA, Rose Bengal standard; type: physicochemical; settings: for 1O2 quantum yield: in water, white light, relative to Rose Bengal; for degradation rate of ABDA: white light irradiation, ABDA absorbance at 378 nm
Protocol: The ^1O2-sensitive indicator, 9,10-anthracenediyl-bis(methylene) dimalonic acid (ABDA), was used as the ^1O2-trapping agent, and Rose Bengal (RB) was used as the standard photosensitizer. In these experiments, 10 μL of ABDA solution ([…]) was added to 1 mL of sample solution, and white light (400-800 nm) with a power density of 0.25 W cm^−2 was employed as the irradiation source. The absorbance of ABDA at 378 nm was recorded at different irradiation time to obtain the decay rate of the photosensitizing process. The ^1O2 quantum yield of the PS in water (ΦPS) was calculated using the following formula: […]
Where KPS and KRB are the decomposition rate constants of ABDA by the PSs and RB, respectively. APS and ARB represent the light absorbed by the PSs and RB, respectively, which are determined by integration of the optical absorption bands in the wavelength range 400-800 nm. ΦRB is the ^1O2 quantum yield of RB, and ΦRB=0.75 in water.
To assess capabilities of PPDC, TPPDC, and TPDC in ^1O2 generation, a commercial ^1O2 probe ABDA was used as an indicator and Rose Bengal (RB) was used as the standard photosensitizer (^1O2 quantum yield ORB=0.75 in water). In the presence of PSs or RB under irradiation with white light, the absorbance of the ABDA solution at 378 nm, decreases with prolonged irradiation time, indicating the degradation of ABDA by ^1O2 generated by PSs. […] Thus, the ^1O2 quantum yield of PPDC, TPPDC and TPDC was calculated to be 0.89, 0.32 and 0.28, respectively. These findings agree well with the prediction based on eq. (1).

[2] = in water; cited from earlier work
MCF-7 cells = experiment: MTT anti-proliferative assay; type: cell-based; settings: in dark or with light irradiation
Protocol: (§1) Subsequently, the anti-proliferative properties of TPECB-Pt-D5-cRGD towards MDA-MB-231 cells, U87-MG cells, MCF-7 cells and 293T cells were evaluated by MTT assays. The MDA-MB-231 cells are cisplatin resistant while U87-MG cells are cisplatin-sensitive. […] It should be noted that the cytotoxicity of cisplatin to both cells was not affected by the light irradiation.

293T cells = experiment: MTT anti-proliferative assay; type: cell-based; settings: in dark or with light irradiation
Protocol: as §1

[3] = ROS generation of AIE residue of prodrug, ABDA absorbance; type: physicochemical; settings: 12 min light irradiation, 0.25 W cm-2
Text: The ROS generation of the AIE residue was studied by measuring the absorption spectra of the mixture of TPECB-Pt-D5-cRGD and 9,10-anthracenediyl-bis(methylene)dimalonic acid (ABDA) in DMSO/PBS (v/v=1/199) upon light irradiation. It should be noted that the absorbance of TPECB-Pt-D5-cRGD is low and will not disturb the absorbance change of ABDA. As depicted in FIG. 23D, the absorption peaks at 358 nm, 378 nm and 400 nm attributed to the anthracene moiety in ABDA decreased gradually upon light irradiation. This is due to the fact that ABDA can efficiently trap ROS by fast reaction with the anthracene moiety.

[4] = system: MDA-MB-231, MCF-7 and 293T cells; experiment: Annexin V-FITC/PI apoptosis staining; type: cell-based; settings: 6 h incubation; only MDA-MB-231 strong apoptotic fluorescence, MCF-7 and 293T negligible
Protocol: The toxicity of cRGD-TPE-Pt-DOX to different cells was also studied using MDA-MB-231, MCF-7 and 293T cells as examples. After incubation with cRGD-TPE-Pt-DOX for 6 h, the cells were stained with Annexin V-FITC/Propidium Iodide (PI), which are commonly used fluorescent probes to distinguish viable cells from apoptosis ones. […] This should be due to the integrin mediated endocytosis, which leads to selective cellular uptake of the prodrug cRGD-TPE-Pt-DOX.

MDA-MB-231 cells = experiment: Combination index (C.I.) analysis from dose-effect profiles; type: cell-based; settings: drug effect levels from 75% to 25%
Protocol: To confirm the drug synergy in cRGD-TPE-Pt-DOX, the combination index (C.I.) was calculated. The C.I. derived from the dose-effect profiles was plotted against drug effect level, which provided quantitative information of the combination drug effect, where C.I. values lower than, equal to, or higher than 1 denote synergism, additivity, or antagonism, respectively.
The combination therapy of cisplatin and DOX towards MDA-MB-231 cells was evaluated by the combination index (C.I.) analysis. The C.I. was calculated as follows: C.I.=D1/Df1+D2/Df2+D1D2/Df1Df2. Where. Df1 is the dose of Drug-1 required to produce x percent effect alone and D1 is the dose of Drug-1 required to produce the same x percent effect in combination with Drug-2; similarly, Df2 is the dose of Drug-2 required to produce x percent effect alone and D2 is the dose of Drug-2 required to produce the same x percent effect in combination with Drug-1. Theoretically, C.I. is the ratio of the combination dose to the sum of the single-drug doses at an isoeffective level. Consequently, C.I. values <1 indicate synergism, values >1 show antagonism, and values=1 indicate additive effects.

U87-MG cells = experiment: MTT anti-proliferative assay; type: cell-based; settings: not affected by light irradiation
Protocol: as §1

Structure (SMILES): COc1ccc(C(=C(c2ccccc2)c2ccc(-c3ccc(C(C)=C(C#N)C#N)cc3)cc2)c2ccc(OC)cc2)cc1 [PPDC]
- 1O2 quantum yield [1]: 0.89
- degradation rate of ABDA [1]: 0.0032

Structure (SMILES): O=C([O-])c1c(Cl)c(Cl)c(Cl)c(Cl)c1-c1c2cc(I)c(=O)c(I)c-2oc2c(I)c([O-])c(I)cc12.[Na+].[Na+] [Rose Bengal]
- 1O2 quantum yield of standard [2]: 0.75

Structure (SMILES): COc1ccc(C(=C(c2ccccc2)c2ccc(C(C)=C(C#N)C#N)cc2)c2ccc(OC)cc2)cc1 [TPDC]
- 1O2 quantum yield [1]: 0.28
- degradation rate of ABDA [1]: 0.0013

Structure (SMILES): COc1ccc(C(=C(c2ccccc2)c2ccc(C(/C=C/c3ccc(OCCCNC(=O)CCC(=O)[O][Pt-2]([NH3+])([NH3+])([Cl])([Cl])[O]C(=O)CCC(=O)N[C@@H](CC(=O)O)C(=O)N[C@@H](CC(=O)O)C(=O)N[C@@H](CC(=O)O)C(=O)N[C@@H](CC(=O)O)C(=O)N[C@@H](CC(=O)O)C(=O)NCCCC[C@@H]4NC(=O)[C@@H](Cc5ccccc5)NC(=O)[C@H](CC(=O)O)NC(=O)CNC(=O)[C@H](CCCNC(=N)N)NC4=O)cc3)=C(C#N)C#N)cc2)c2ccc(OC)cc2)cc1 [TPECB-Pt-D5-cRGD]
- cytotoxicity (MCF-7 cells): minimum cytotoxicity
- cytotoxicity (293T cells): minimum cytotoxicity
- ABDA absorption at 400 nm, % of original value [3]: 24.1%

Structure (SMILES): COc1ccc(C(=C(c2ccccc2)c2ccc(C(=C(C#N)C#N)c3ccccc3)cc2)c2ccc(OC)cc2)cc1 [TPPDC]
- 1O2 quantum yield [1]: 0.32
- degradation rate of ABDA [1]: 0.0018

Structure (SMILES): COc1cccc2c1C(=O)c1c(O)c3c(c(O)c1C2=O)C(OC1CC(NC(=O)CCC(=O)[O][Pt]([NH2])([NH2])([Cl])([Cl])[O]C(=O)CCC(=O)NCc2cn(Cc4ccc(/C(=C(\c5ccccc5)c5ccc(Cn6cc(C[C@@H]7NC(=O)[C@@H](Cc8ccccc8)NC(=O)[C@H](CC(=O)O)NC(=O)CNC(=O)[C@H](CCCNC(=N)N)NC7=O)nn6)cc5)c5ccccc5)cc4)nn2)C(O)C(C)O1)CC(O)(C(=O)CO)C3 (stereo partly shown) [cRGD-TPE-Pt-DOX]
- selective apoptosis [4]: selectively kill integrin overexpressed cancer cells
- combination index (C.I.) result (MDA-MB-231 cells): synergistic effect

Structure (SMILES): N.N.[Cl][Pt][Cl] [cisplatin]
- IC50 (U87-MG cells): 5.4 µM
